Test results as given in ChEMBL document CHEMBL3758138, “Synthesis and pharmacological evaluation of dehydroabietic acid thiourea derivatives containing bisphosphonate moiety as an inducer of apoptosis” (Eur J Med Chem, 2016).
Active and inactive are the calls of the source. The rule behind the calls is not given here.

How the values were obtained:
[1] = Cytotoxic activity against human SKOV3 cells assessed as inhibition of cell growth after 48 hrs by MTT assay; assay type: functional, cell-based; details: SK-OV-3, 48 h
[2] = Cytotoxic activity against human Bel7404 cells assessed as inhibition of cell growth after 48 hrs by MTT assay; assay type: functional, cell-based; details: BEL-7404, 48 h
A549 = experiment: Cytotoxic activity against human A549 cells assessed as inhibition of cell growth after 48 hrs by MTT assay; assay type: functional, cell-based; details: A549, 48 h
[3] = Cytotoxic activity against human HCT116 cells assessed as inhibition of cell growth after 48 hrs by MTT assay; assay type: functional, cell-based; details: HCT-116, 48 h
NCI-H460 = experiment: Cytotoxic activity against human NCI-H460 cells assessed as inhibition of cell growth after 48 hrs by MTT assay; assay type: functional, cell-based; details: NCI-H460, 48 h
[4] = molecular target: Cyclin-dependent kinase 2/cyclin E1 (Homo sapiens, UniProt P24941); experiment: Inhibition of human recombinant C-terminal His6-tagged full length human Cdk2/human recombinant N-terminal GST-tagged full-length Cyclin E using histone H1 substrate after 40 mins by radiometric filter binding assay; assay type: protein-complex assay
SK-OV-3 [5] = experiment: Induction of apoptosis in human SKOV3 cells assessed as increase in chromatin condensation at 5 uM after 24 hrs by Hoechst 33258 staining based fluorescence microscopic analysis; assay type: functional, cell-based
SK-OV-3 [6] = experiment: Induction of apoptosis in human SKOV3 assessed as loss of membrane integrity at 5 uM after 12 to 24 hrs by AO/EB staining based fluorescence microscopic analysis; assay type: functional
SK-OV-3 [7] = experiment: Induction of ROS generation in human SKOV3 cells at 5 uM after 12 hrs by DCF-DA dye based flow cytometry (reference value: 12.9%); assay type: functional
SK-OV-3 [8] = experiment: Induction of ROS generation in human SKOV3 cells at 5 uM after 24 hrs by DCF-DA dye based flow cytometry (reference value: 12.9%); assay type: functional
SK-OV-3 [9] = experiment: Induction of apoptosis in human SKOV3 cells assessed as depolarization of mitochondria at 5 uM after 12 to 24 hrs by JC-1 dye based fluorescence microscopic analysis; assay type: functional
SK-OV-3 [10] = experiment: Induction of apoptosis in human SKOV3 cells assessed as increase in cytochrome c level in cytosol at 5 uM after 12 to 24 hrs by Western blot analysis; assay type: functional, cell-based
SK-OV-3 [11] = experiment: Induction of apoptosis in human SKOV3 cells assessed as caspase-9 cleavage at 5 uM after 12 to 24 hrs by Western blot analysis; assay type: functional, cell-based
SK-OV-3 [12] = experiment: Induction of apoptosis in human SKOV3 cells assessed as caspase-3 cleavage at 5 uM after 12 to 24 hrs by Western blot analysis; assay type: functional, cell-based
SK-OV-3 [13] = experiment: Induction of apoptosis in human SKOV3 cells assessed as caspase-3 activity by Ac-DEVD-pNA based spectrophotometric analysis; assay type: functional, cell-based; details: TDE = time-dependent effect
SK-OV-3 [14] = experiment: Induction of apoptosis in human SKOV3 cells assessed as caspase-9 activity by Ac-LEHD-pNA based spectrophotometric analysis; assay type: functional, cell-based; details: TDE = time-dependent effect
SK-OV-3 [15] = experiment: Induction of apoptosis in human SKOV3 cells after 12 hrs by Annexin V-FITC/PI staining based flow cytometry; assay type: functional, cell-based
SK-OV-3 [16] = experiment: Induction of apoptosis in human SKOV3 cells assessed as late apoptotic cells at 3 uM after 12 hrs by Annexin V-FITC/PI staining based flow cytometry (reference value: 1.5%); assay type: functional
SK-OV-3 [17] = experiment: Induction of apoptosis in human SKOV3 cells assessed as late apoptotic cells at 5 uM after 12 hrs by Annexin V-FITC/PI staining based flow cytometry (reference value: 1.5%); assay type: functional
SK-OV-3 [18] = experiment: Induction of apoptosis in human SKOV3 cells assessed as early apoptotic cells at 3 uM after 12 hrs by Annexin V-FITC/PI staining based flow cytometry (reference value: 2.8%); assay type: functional
SK-OV-3 [19] = experiment: Induction of apoptosis in human SKOV3 cells assessed as early apoptotic cells at 5 uM after 12 hrs by Annexin V-FITC/PI staining based flow cytometry (reference value: 2.8%); assay type: functional
SK-OV-3 [20] = experiment: Induction of ROS generation in human SKOV3 cells at 5 uM after 12 hrs by DCF-DA dye based flow cytometry relative to control; assay type: functional
[21] = Upregulation of Bax protein expression in human SKOV3 cells at 5 uM after 12 to 24 hrs by Western blot analysis; assay type: functional, cell-based; details: SK-OV-3
[22] = Downregulation of Bcl-2 protein expression in human SKOV3 cells after 12 to 24 hrs by Western blot analysis; assay type: functional, cell-based; details: SK-OV-3
SK-OV-3 [23] = experiment: Induction of Fas protein expression in human SKOV3 cells after 12 to 24 hrs by Western blot analysis; assay type: functional, cell-based
SK-OV-3 [24] = experiment: Induction of apoptosis in human SKOV3 cells assessed as reduction in caspase-8 level in cytoplasm at 5 uM after 12 to 24 hrs by Western blot analysis; assay type: functional, cell-based
[25] = Cell cycle arrest in human SKOV3 cells assessed as accumulation at G1 phase at 3 uM after 24 hrs by propidium iodide staining based flow cytometry (reference value: 53.38%); assay type: functional; details: SK-OV-3
[26] = Cell cycle arrest in human SKOV3 cells assessed as accumulation at G2 phase at 3 uM after 24 hrs by propidium iodide staining based flow cytometry (reference value: 8.85%); assay type: functional; details: SK-OV-3
[27] = Cell cycle arrest in human SKOV3 cells assessed as accumulation at S phase at 3 uM after 24 hrs by propidium iodide staining based flow cytometry (reference value: 37.77%); assay type: functional; details: SK-OV-3
[28] = Cell cycle arrest in human SKOV3 cells assessed as accumulation at G1 phase at 5 uM after 24 hrs by propidium iodide staining based flow cytometry (reference value: 53.38%); assay type: functional; details: SK-OV-3
[29] = Cell cycle arrest in human SKOV3 cells assessed as accumulation at G2 phase at 5 uM after 24 hrs by propidium iodide staining based flow cytometry (reference value: 8.85%); assay type: functional; details: SK-OV-3
[30] = Cell cycle arrest in human SKOV3 cells assessed as accumulation at S phase at 5 uM after 24 hrs by propidium iodide staining based flow cytometry (reference value: 37.77%); assay type: functional; details: SK-OV-3

CCOP(=O)(OCC)C(CNc1ccccc1NC(=S)NC(=O)[C@]1(C)CCC[C@]2(C)c3ccc(C(C)C)cc3CC[C@@H]12)P(=O)(OCC)OCC
IC50 [1]: 16.5 µM
IC50 [2]: 12.5 µM
IC50 (A549): 15 µM
IC50 [3]: 11.4 µM
IC50 (NCI-H460): 13.9 µM
IC50 [4]: 15.3 µM

CCOP(=O)(OCC)C(CNc1ccc(Cc2ccc(NC(=S)NC(=O)[C@]3(C)CCC[C@]4(C)c5ccc(C(C)C)cc5CC[C@@H]34)cc2)cc1)P(=O)(OCC)OCC
IC50 [1]: 28.9 µM
IC50 [2]: 35.9 µM
IC50 (A549): 33.6 µM
IC50 [3]: 25.5 µM
IC50 (NCI-H460): 37.6 µM
IC50 [4]: 29.5 µM

CCOP(=O)(OCC)C(CNc1cc(C)c(C)cc1NC(=S)NC(=O)[C@]1(C)CCC[C@]2(C)c3ccc(C(C)C)cc3CC[C@@H]12)P(=O)(OCC)OCC
IC50 [1]: 19.5 µM
IC50 [2]: 12.7 µM
IC50 (A549): 13.8 µM
IC50 [3]: 13.1 µM
IC50 (NCI-H460): 28.3 µM
IC50 [4]: 2.56 µM

CCOP(=O)(OCC)C(CNc1ccc(NC(=S)NC(=O)[C@]2(C)CCC[C@]3(C)c4ccc(C(C)C)cc4CC[C@@H]23)cc1)P(=O)(OCC)OCC
IC50 [1]: 16.6 µM
IC50 [2]: 12.1 µM
IC50 (A549): 15.9 µM
IC50 [3]: 12.2 µM
IC50 (NCI-H460): 13 µM
IC50 [4]: 17.8 µM

CCOP(=O)(OCC)C(CNc1cc(Cl)c(NC(=S)NC(=O)[C@]2(C)CCC[C@]3(C)c4ccc(C(C)C)cc4CC[C@@H]23)cc1Cl)P(=O)(OCC)OCC
IC50 [1]: 22.1 µM
IC50 [2]: 24.6 µM
IC50 (A549): 16.4 µM
IC50 [3]: 20.2 µM
IC50 (NCI-H460): 24 µM
IC50 [4]: > 50 µM

O=c1[nH]cc(F)c(=O)[nH]1 [FLUOROURACIL]
IC50 [1]: 22.4 µM
IC50 [2]: 30.2 µM
IC50 [3]: 24.6 µM
IC50 (NCI-H460): 35.5 µM

CCOP(=O)(OCC)C(CNc1cccc(NC(=S)NC(=O)[C@]2(C)CCC[C@]3(C)c4ccc(C(C)C)cc4CC[C@@H]23)c1C)P(=O)(OCC)OCC
IC50 [1]: 17.3 µM
IC50 [2]: 11.9 µM
IC50 (A549): 15.7 µM
IC50 [3]: 11.9 µM
IC50 (NCI-H460): 14.2 µM
IC50 [4]: 5.98 µM

CCOP(=O)(OCC)C(CNc1ccc(Sc2ccc(NC(=S)NC(=O)[C@]3(C)CCC[C@]4(C)c5ccc(C(C)C)cc5CC[C@@H]34)cc2)cc1)P(=O)(OCC)OCC
IC50 [1]: 40.9 µM
IC50 [2]: 39.2 µM
IC50 (A549): 38.8 µM
IC50 [3]: 34.1 µM
IC50 (NCI-H460): 40.9 µM
IC50 [4]: 1.01 µM

CCOP(=O)(OCC)C(CNc1cccc(NC(=S)NC(=O)[C@]2(C)CCC[C@]3(C)c4ccc(C(C)C)cc4CC[C@@H]23)c1)P(=O)(OCC)OCC
IC50 [1]: 16.5 µM
IC50 [2]: 10.3 µM
IC50 (A549): 15.4 µM
IC50 [3]: 11.3 µM
IC50 (NCI-H460): 13.7 µM
IC50 [4]: > 50 µM

CCOP(=O)(OCC)C(CNc1ccc(S(=O)(=O)c2ccc(NC(=S)NC(=O)[C@]3(C)CCC[C@]4(C)c5ccc(C(C)C)cc5CC[C@@H]34)cc2)cc1)P(=O)(OCC)OCC
IC50 [1]: 53.9 µM
IC50 [2]: 32.2 µM
IC50 (A549): 41.9 µM
IC50 [3]: 56 µM
IC50 (NCI-H460): 32.7 µM
IC50 [4]: 0.65 µM

CCOP(=O)(OCC)C(CNc1ccc(F)cc1NC(=S)NC(=O)[C@]1(C)CCC[C@]2(C)c3ccc(C(C)C)cc3CC[C@@H]12)P(=O)(OCC)OCC
Activity (SK-OV-3 [5]): Dose-dependent effect
Activity (SK-OV-3 [6]): Active
Activity (SK-OV-3 [7]): 33.6%
Activity (SK-OV-3 [8]): 49.3%
Activity (SK-OV-3 [9]): Active
Activity (SK-OV-3 [10]): Active
Activity (SK-OV-3 [11]): Active
Activity (SK-OV-3 [12]): Active
Activity (SK-OV-3 [13]): tde
Activity (SK-OV-3 [14]): tde
IC50 [1]: 1.79 µM
IC50 [2]: 7.1 µM
IC50 (A549): 6.93 µM
IC50 [3]: 6.01 µM
IC50 (NCI-H460): 8.17 µM
Activity (SK-OV-3 [15]): Dose-dependent effect
Activity (SK-OV-3 [16]): 14.4%
Activity (SK-OV-3 [17]): 5.7%
Activity (SK-OV-3 [18]): 14.5%
Activity (SK-OV-3 [19]): 24.7%
fold change (FC) (SK-OV-3 [20]): 2
Activity [21]: Dose-dependent effect
Activity [22]: Dose-dependent effect
Activity (SK-OV-3 [23]): Dose-dependent effect
Activity (SK-OV-3 [24]): Active
Activity [25]: 59.8%
Activity [26]: 13.4%
Activity [27]: 26.9%
Activity [28]: 68.1%
Activity [29]: 10.5%
Activity [30]: 21.4%
IC50 [4]: 0.13 µM

CCOP(=O)(OCC)C(CNc1ccc(Oc2ccc(NC(=S)NC(=O)[C@]3(C)CCC[C@]4(C)c5ccc(C(C)C)cc5CC[C@@H]34)cc2)cc1)P(=O)(OCC)OCC
IC50 [1]: 58.9 µM
IC50 [2]: 31.3 µM
IC50 (A549): 20 µM
IC50 [3]: 44.6 µM
IC50 (NCI-H460): 38.2 µM
IC50 [4]: 40.9 µM

CC(C)c1ccc2c(c1)CC[C@H]1[C@](C)(C(=O)O)CCC[C@]21C [DEHYDROABIETIC ACID]
IC50 [1]: 65.1 µM
IC50 [2]: 28.7 µM
IC50 (A549): 55.6 µM
IC50 [3]: 30.2 µM
IC50 (NCI-H460): 75 µM
IC50 [4]: 36.3 µM
